Source: patent publication US11596622B2, “Mazindol treatment for heroin dependence and substance use disorder” (NLS Pharmaceutics AG, priority 2017, dated 2023)

Experiments:
μ (MOP) (h) = molecular target: T1, μ (MOP) (h) (Homo sapiens, UniProt P35372); test: Radioligand binding, μ opioid receptor (Eurofins CEREP)
T1 construct: Eurofins CEREP
Source text: Table A discloses mazindol and Met tested at […] and the compound binding calculated as a percent inhibition of the binding of a radioactively labeled ligand specific for each target (Eurofins CEREP, France).
An inhibition or stimulation of more than 50% is considered a significant effect of the test compounds. Fifty percent is a common cut-off for further investigation (i.e. determination of IC50 or EC50 values from concentration-response curves). Tables B and C display the binding profiles for Mazindol and Met.
The results are expressed as a percent of control specific binding obtained in the presence of the test compounds:
[formula] and as a percent inhibition of control specific binding obtained in the presence of the test compounds: […]

[1] = animal toxicology studies; cited from earlier work
[2] = system: cocaine abuse and dependence; settings: studies (7, 8); vs. placebo; cited from earlier work
Sprague-Dawley rats = test: Naloxone precipitated withdrawal syndrome of heroin; assay type: in vivo; settings: for Abdominal constrictions score (Abd C) / Abnormal posture score (Ab P) / Chromodacryorrhea score (Chr) / Diarrhea score (Diarr) / Erection or ejaculation score (Er Ej) / Escape attempts score (Esc A) / Facial fasciculation or teeth chattering score (F F T C) / Global Score / Irritability score (Irrit) / Profuse salivation score (Pr Sal) / Ptosis score (Ptos) / Swallowing movements score (Sw M) / Weight loss score (W Los) / Wet dog shakes score (W D S): mean
Protocol: The abrupt cessation of chronic opiate use results in a well characterized withdrawal syndrome with symptoms that include pain sensitivity, dysphoria, irritability, restlessness, insomnia, diarrhea and hyperventilation. In the present model, the naloxone-precipitated withdrawal syndrome is measured in rodents. Animals are chronically treated with a drug, e.g. morphine or heroin. Opiate withdrawal syndrome is elicited by an acute injection of the opiate antagonist Naloxone.
The effect of mazindol on heroin withdrawal syndrome elicited by naloxone was examined in Sprague-Dawley rats using a method similar to the one used by Jiang et al. (10),
Animals were subdivided into two groups. One group received heroin two i.p. injections/day for 12 consecutive days and a single injection on the 13th day (total: 25 injections) as exposed in Table 3 group received saline instead of heroin following the same protocol.
On day 13, animals received treatments and were tested according to the following time schedule: • T=0: i.p. injection of heroin (15 mg/kg) or vehicle. • T=2.5 h: animals individually placed in a transparent Plexiglas observation boxes (40×40×40 cm). • T=3.5 h: i.p. injection of treatment (see below). • T=4 h: i.p. injection of naloxone (5 mg/kg), start of test: observation of withdrawal symptoms as indicated in Table 4. • T=5 h: end of test, animals placed back into their home cages.
Animals received the following treatments at T 3.5 h (i.e. 30 min before injection of naloxone and observation of symptoms): • 1) Animals treated with saline during the intoxication period (days 1-12) and at T0 on day 13: • Saline group (N=8): saline (0.9% NaCl). • 2) Animals treated with […] during the intoxication period (days 1-12) and at T0 on day 13: • Hero group (N=14): saline (0.9% NaCl). • Amph 1 group (N=4): D-amphetamine (1 mg/kg). • Maz 0.125 group (N=5): mazindol (0.125 mg/kg). • Maz 0.25 group (N=6): mazindol (0.25 mg/kg). • Maz 0.5 group (N=6): mazindol (0.5 mg/kg). • Maz 1 group (N=6): mazindol (1 mg/kg). • Maz 2 group (N=5): mazindol (2 mg/kg).
A weighting factor was ascribed for each sign from which a score was calculated.
Examples: • Body weight before naloxone injection=241 g; after naloxone injection=236 g: • Weight loss score=2=100×(241−236)/241 • Number of escape attempts=8: • Score for escape attempts=2 • Profuse salivation present: • Score for profuse salivation
A global withdrawal score was then calculated: • Global score=the sum of the scores

[3] = cited from earlier work
[4] = Maz 0.125: heroin-treated rats, mazindol 0.125 mg/kg i.p. 30 min before naloxone 5 mg/kg
[5] = Maz 0.25: heroin-treated rats, mazindol 0.25 mg/kg i.p. 30 min before naloxone 5 mg/kg
[6] = Maz 0.5: heroin-treated rats, mazindol 0.5 mg/kg i.p. 30 min before naloxone 5 mg/kg
[7] = Maz 1: heroin-treated rats, mazindol 1 mg/kg i.p. 30 min before naloxone 5 mg/kg
[8] = Maz 2: heroin-treated rats, mazindol 2 mg/kg i.p. 30 min before naloxone 5 mg/kg

T1 sequence (P35372 whole entry): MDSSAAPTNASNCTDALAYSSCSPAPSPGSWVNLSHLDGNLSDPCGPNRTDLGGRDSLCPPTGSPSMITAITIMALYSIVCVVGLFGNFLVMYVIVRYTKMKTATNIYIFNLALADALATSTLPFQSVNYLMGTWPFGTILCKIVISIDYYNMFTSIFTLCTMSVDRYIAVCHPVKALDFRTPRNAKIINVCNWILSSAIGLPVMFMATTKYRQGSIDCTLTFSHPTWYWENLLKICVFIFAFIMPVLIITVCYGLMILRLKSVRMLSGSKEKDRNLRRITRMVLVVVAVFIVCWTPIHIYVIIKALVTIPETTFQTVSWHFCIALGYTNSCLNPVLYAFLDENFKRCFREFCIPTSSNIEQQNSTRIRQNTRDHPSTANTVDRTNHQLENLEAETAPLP

In the case of `OC1(c2ccc(Cl)cc2)c2ccccc2C2=NCCN21` (stereo not drawn) [Mazindol, 5-(4-chlorophenyl)-2,5-dihydro-3 H-imadazo[2,1-a]isoindol-5-ol], the inhibition at 10 µM (μ (MOP) (h); 1.0 × 10^−05 M, agonist radioligand, read-out: percent inhibition of the binding of a radioactively labeled ligand) is listed as 89.9%, the “affinity for μ-opioid receptors” value (μ (MOP) (h); compared with amphetamines) is listed as “higher affinity” and the carcinogenic effect [1] is listed as “no carcinogenic effect”. The mutagenic effect [1] was “no mutagenic effect”, the toxic potential [1] was “very low” and the “toxicology effect in reproduction” value [1] was “no toxicology effect in reproduction”. The “efficacy in treating cocaine abuse and dependence” value [2] was “ineffective”, the “Abdominal constrictions score (Abd C)” value (Sprague-Dawley rats; [4]) was 2.8 and the “Abnormal posture score (Ab P)” value (Sprague-Dawley rats; [4]) was 0.0. For the same compound, the “Chromodacryorrhea score (Chr)” value (Sprague-Dawley rats; [4]) was 2.0, the “Diarrhea score (Diarr)” value (Sprague-Dawley rats; [4]) was 0.8 and the “Erection or ejaculation score (Er Ej)” value (Sprague-Dawley rats; [4]) was 0.0. For the same compound, the “Escape attempts score (Esc A)” value (Sprague-Dawley rats; [4]) was 1.0, the “Facial fasciculation or teeth chattering score (F F T C)” value (Sprague-Dawley rats; [4]) was 1.6 and the “Global Score” value (Sprague-Dawley rats; [4]) was 13.2. For the same compound, the “Irritability score (Irrit)” value (Sprague-Dawley rats; [4]) was 0.0, the “Profuse salivation score (Pr Sal)” value (Sprague-Dawley rats; [4]) was 0.0 and the “Ptosis score (Ptos)” value (Sprague-Dawley rats; [4]) was 0.0. The “Swallowing movements score (Sw M)” value (Sprague-Dawley rats; [4]) was 1.2, the “Weight loss score (W Los)” value (Sprague-Dawley rats; [4]) was 1.0 and the “Wet dog shakes score (W D S)” value (Sprague-Dawley rats; [4]) was 2.8. The “Abdominal constrictions score (Abd C)” value (Sprague-Dawley rats; [5]) was 0.0, the “Abnormal posture score (Ab P)” value (Sprague-Dawley rats; [5]) was 0.0 and the “Chromodacryorrhea score (Chr)” value (Sprague-Dawley rats; [5]) was 0.8. For the same compound, the “Diarrhea score (Diarr)” value (Sprague-Dawley rats; [5]) was 1.0, the “Erection or ejaculation score (Er Ej)” value (Sprague-Dawley rats; [5]) was 0.0 and the “Escape attempts score (Esc A)” value (Sprague-Dawley rats; [5]) was 0.7. For the same compound, the “Facial fasciculation or teeth chattering score (F F T C)” value (Sprague-Dawley rats; [5]) was 2.0, the “Global Score” value (Sprague-Dawley rats; [5]) was 8.3 and the “Irritability score (Irrit)” value (Sprague-Dawley rats; [5]) was 0.0. For the same compound, the “Profuse salivation score (Pr Sal)” value (Sprague-Dawley rats; [5]) was 0.0, the “Ptosis score (Ptos)” value (Sprague-Dawley rats; [5]) was 0.0 and the “Swallowing movements score (Sw M)” value (Sprague-Dawley rats; [5]) was 1.0. For the same compound, the “Weight loss score (W Los)” value (Sprague-Dawley rats; [5]) was 1.2, the “Wet dog shakes score (W D S)” value (Sprague-Dawley rats; [5]) was 1.7 and the “Abdominal constrictions score (Abd C)” value (Sprague-Dawley rats; [6]) was 0.0. For the same compound, the “Abnormal posture score (Ab P)” value (Sprague-Dawley rats; [6]) was 0.0, the “Chromodacryorrhea score (Chr)” value (Sprague-Dawley rats; [6]) was 0.0 and the “Diarrhea score (Diarr)” value (Sprague-Dawley rats; [6]) was 1.0. For the same compound, the “Erection or ejaculation score (Er Ej)” value (Sprague-Dawley rats; [6]) was 0.0, the “Escape attempts score (Esc A)” value (Sprague-Dawley rats; [6]) was 1.7 and the “Facial fasciculation or teeth chattering score (F F T C)” value (Sprague-Dawley rats; [6]) was 2.0. The “Global Score” value (Sprague-Dawley rats; [6]) was 9.7, the “Irritability score (Irrit)” value (Sprague-Dawley rats; [6]) was 0.0 and the “Profuse salivation score (Pr Sal)” value (Sprague-Dawley rats; [6]) was 0.0. The “Ptosis score (Ptos)” value (Sprague-Dawley rats; [6]) was 0.0, the “Swallowing movements score (Sw M)” value (Sprague-Dawley rats; [6]) was 0.3 and the “Weight loss score (W Los)” value (Sprague-Dawley rats; [6]) was 1.7. The “Wet dog shakes score (W D S)” value (Sprague-Dawley rats; [6]) was 3.0, the “Abdominal constrictions score (Abd C)” value (Sprague-Dawley rats; [7]) was 0.0 and the “Abnormal posture score (Ab P)” value (Sprague-Dawley rats; [7]) was 0.0. For the same compound, the “Chromodacryorrhea score (Chr)” value (Sprague-Dawley rats; [7]) was 1.7, the “Diarrhea score (Diarr)” value (Sprague-Dawley rats; [7]) was 1.7 and the “Erection or ejaculation score (Er Ej)” value (Sprague-Dawley rats; [7]) was 0.5. For the same compound, the “Escape attempts score (Esc A)” value (Sprague-Dawley rats; [7]) was 2.5, the “Facial fasciculation or teeth chattering score (F F T C)” value (Sprague-Dawley rats; [7]) was 2.0 and the “Global Score” value (Sprague-Dawley rats; [7]) was 14.0. For the same compound, the “Irritability score (Irrit)” value (Sprague-Dawley rats; [7]) was 0.0, the “Profuse salivation score (Pr Sal)” value (Sprague-Dawley rats; [7]) was 1.2 and the “Ptosis score (Ptos)” value (Sprague-Dawley rats; [7]) was 0.0. The “Swallowing movements score (Sw M)” value (Sprague-Dawley rats; [7]) was 0.3, the “Weight loss score (W Los)” value (Sprague-Dawley rats; [7]) was 3.2 and the “Wet dog shakes score (W D S)” value (Sprague-Dawley rats; [7]) was 1.0. The “Abdominal constrictions score (Abd C)” value (Sprague-Dawley rats; [8]) was 0.0, the “Abnormal posture score (Ab P)” value (Sprague-Dawley rats; [8]) was 0.6 and the “Chromodacryorrhea score (Chr)” value (Sprague-Dawley rats; [8]) was 1.0. The “Diarrhea score (Diarr)” value (Sprague-Dawley rats; [8]) was 2.0, the “Erection or ejaculation score (Er Ej)” value (Sprague-Dawley rats; [8]) was 0.0 and the “Escape attempts score (Esc A)” value (Sprague-Dawley rats; [8]) was 1.6. The “Facial fasciculation or teeth chattering score (F F T C)” value (Sprague-Dawley rats; [8]) was 0.4, the “Global Score” value (Sprague-Dawley rats; [8]) was 10.4 and the “Irritability score (Irrit)” value (Sprague-Dawley rats; [8]) was 0.0. The “Profuse salivation score (Pr Sal)” value (Sprague-Dawley rats; [8]) was 1.4, the “Ptosis score (Ptos)” value (Sprague-Dawley rats; [8]) was 0.0 and the “Swallowing movements score (Sw M)” value (Sprague-Dawley rats; [8]) was 0.0. The “Weight loss score (W Los)” value (Sprague-Dawley rats; [8]) was 3.0, the “Wet dog shakes score (W D S)” value (Sprague-Dawley rats; [8]) was 0.4 and the “effect on the score for escape attempt” value (Sprague-Dawley rats; mazindol 2 mg/kg) was “increased”. For the same compound, the “effect on the scores for weight loss and diarrhea” value (Sprague-Dawley rats; mazindol 0.125-2 mg/kg) was “Did not significantly reduce”, the “reduction of the global score (FIG. 4)” value (Sprague-Dawley rats; mazindol 0.125-2 mg/kg) was “significant at all doses except 0.125 mg/kg” and the “reduction of the score for facial fasciculation or teeth chattering (FIG. 6)” value (Sprague-Dawley rats; mazindol 0.125-2 mg/kg) was “significant at 2 mg/kg”. For the same compound, the “reduction of the score for profuse salivation (FIG. 6)” value (Sprague-Dawley rats; mazindol 0.125-2 mg/kg) was “significant at all doses except 2 mg/kg”, the “reduction of the score for wet dog shake (FIG. 5)” value (Sprague-Dawley rats; mazindol 0.125-2 mg/kg) was “significant effect at 1 and 2 mg/kg” and the “effect on naloxone precipitated withdrawal symptoms of heroin” value (Sprague-Dawley rats; mazindol, significant at 0.25, 0.5, 1 and 2 mg/kg, but not at 0.125 mg/kg) was “decreased the naloxone precipitated withdrawal symptoms of heroin”. The linearity of pharmacokinetics ([3]; between 1 mg/day and 4 mg/day, immediate release formulations) was “linear (independent of the dose)”, the half-life time ([3]; immediate release formulation, healthy volunteers (Kim 2009)) was 9.1 ± 1.7 h and the “time to maximum concentrations (Tmax)” value ([3]; single or repeated oral administration, U.S. Pat. No. 8,293,779) was 2 to 4 h.
